Consider four compounds from patent US20180094232A1, “Methods For The Cryopreservation Of Mammalian Cells” (The General Hospital Corporation, priority 2009, published 2018).

“Also recorded” adds a separate entry of the source. Read-outs that look alike come from different tables or passages of the source.

Series [1] can be described thus: Critical cooling rate to achieve vitrification (Vcc) from Boutron's semi-empirical theory and DSC K4. Format: physicochemical. An excerpt:
The critical cooling rate to achieve vitrification (Vcc) is a function of the concentration of cryoprotectant. It has been extensively studied in the case of 1,2-propanediol and other alcohols with relevance in cryobiology, although mainly in the range of cooling rates achievable by differential scanning calorimetry (DSC) techniques. However, it is possible to obtain estimates of the critical cooling rates at other […]. The presence of sugars in equimolar concentrations has shown to have no effect on Vcc in the case of monosaccharides and little effect in the case of sucrose for the concentration used in these studies (0.3 M)(Kuleshova et al., Cryobiology 38: 199-130, 1999). The Vcc can be inferred from Boutron's semi-empirical theory of glass forming tendency (Boutron, Cryobiology 23:88-102, 1986); it is given by:
To is the initial temperature of crystallization and xg is the amount of ice formed at the critical cooling rate. Many studies in the literature consider a solution to be vitrified when xg≦10^−6 (Liu and McGrath, Proc. 2005 IEEE Eng. Med. Biol. 27th Ann. Conference, p. 7501-7504, 2005). K4 is a constant dependent of the solution and can be determined by DSC. Although there is not data for K4 in the available literature for our solution, some estimation can be done. The values of K4 for 40%, 37.5% and 35% (w/w) of aqueous solutions of 1,2 propanediol are 24.1° C./min, 54.1° C./min and 151° C./min (Ren et al., Cryobiology 31:47-56, 1994). These values of K4 give rise to Vcc values of 8.0×10^2° C./min, 1.8×10^3° C./min and 5.0×10^3° C./min, respectively. So, a tentative value of […] for 1.8 M of 1,2-propanediol is 10^4° C./min. […] The exponential fitting of the data is justified by the theory (Ren et al., supra).

The next series concerns primary rat hepatocytes. Nature of the series: Hepatocyte viability post-cryopreservation in QMC, exclusion of trypan blue. The following applies: 1.5 M PROH, 0.3 M sucrose, or both, immediately post-cryopreservation. Format: cell-based. How it is done: The vitrification technique was also tested using primary liver cells (hepatocytes) due to their sensitivity to stress, and importance in liver tissue engineering and availability. The cell viability of hepatocytes was determined immediately post-cryopreservation in quartz micro-capillaries (QMC) in the presence of either no CPA; 0.3 M sucrose; 1.5 M 1,2-propanediol (PROH); 1.5 M PROH and 0.3 M sucrose; or 2.0 M PROH and […]. The number of viable cells was determined in both vitrified samples as well as non-vitrified controls (i.e., no freezing). Cell viability was quantified by the exclusion of trypan blue. […] There was only ˜35% survival for cells loaded with 1.5 M PROH prior to cryopreservation. Sucrose (0.3 M) was then added to the cryopreservation solution with 1.5-2 M PROH. […] When 0.3 M sucrose was added to the cryopreservation solution, the immediate viability jumped to ˜75%.

Another series relates to mouse oocytes. Nature of the series: Survival and morphology of mouse oocytes after vitrification in quartz capillaries. Format: cell-based. How it is done: The 6-week-old B6D2F1 female mice were superovulated with 7.5 IU of pregnant mare serum gonadotrophin (Sigma-Aldrich, St. Louis, Mo., USA) and 7.5 IU of human chorionic gonadotrophin (Sigma-Aldrich) given by intraperitoneal injections 48 h apart. Fourteen hours after human chorionic gonadotrophin injection, females were anaesthetized with avertin (Sigma-Aldrich) then killed by cervical dislocation and their oviducts were removed. The cumulus-oocytecomplex was released from the ampullary region of each oviduct by puncturing the oviduct with a 27-gauge needle. Cumulus cells were removed by exposure to hyaluronidase (80 IU/ml) (Irvine Scientific, Santa Ana, Calif., USA) for 3 min and washed three times with human tubal fluid (HTF) medium (Irvine Scientific) with 10% fetal bovine serum (FBS; Gibco, Carlsbad, Calif., USA). Oocytes were transferred and cultured in HTF medium (Quinn et al., 1995) containing 10% FBS at 37° C. and 5% CO2 in air until they were vitrified.
All cryoprotectant solutions were filter-sterilized and stored at 4° C. prior to use. The base cryoprotectant solutions used were PrOH (Sigma-Aldrich) and trehalose (Ferro Pfanstiehl Laboratory, Waukegan, Ill., USA). The concentrations and types of cryoprotectants used were similar to those used in traditional slow-freezing protocols for human oocytes (Gook and Edgar, 2007) and are not typically vitrifiable. For vitrification, isolated mature oocytes were placed into HTF medium supplemented with 10% FBS. Two vitrification protocols using a HEPES-buffered physiological salt solution (FHM; Specialty Media, Lavallette, N.J., USA) (Lawitts and Biggers, 1993) as a base medium were tested. In the first protocol, the oocytes were equilibrated in a 30 μl droplet of 0.75 mol/l PrOH in FHM20 (FHM medium containing 20% FBS) for 5 min, then transferred to a 30 μl droplet of 0.5 mol/l trehalose+1.5 mol/l PrOH in FHM20 for 5 min.
In the second protocol, oocytes were equilibrated in a 30 μl droplet of 0.75 mol/l PrOH in FHM20 for 5 min, then equilibrated in a 30 μl droplet of 1.5 mol/l PrOH in FHM20 for 5 min before being transferred to a 0.5 mol/l trehalose 2.0 mol/l PrOH in FHM20, for 5 min. The QC straws (The Charles Supper Company, USA) used for vitrification have an outer and inner diameter of approximately 0.2 and 0.18 mm, respectively, and a wall thickness of 0.01 mm (He et al., 2008). After exposure to the vitrification solution, the oocytes were then loaded into the 200 μm QC and plunged into liquid or slush nitrogen for comparison. For warming, the vitrified oocytes were immediately immersed in a holding medium containing 0.2 mol/l trehalose in […]phosphate-buffered saline (PBS; Gibco) at 37° C. for 1 minute. […]

The conditions of series [2]: cited from earlier work.
A short description of series [3]: Vitrification of CPA laden solutions: opacity after plunging the device into liquid nitrogen. Format: physicochemical. An excerpt: One convenient way for determining non-vitrification is the appearance of opacity as a result of ice formation when freezing solutions in a straw. If there is no visible opacity, it is called apparent vitrification. Although opacity could be easily identified in the traditional plastic straw using the naked eye, it is very difficult to do so for the quartz micro-capillary due to its small dimension. Therefore, an experimental setup shown in FIG. 10 was designed for visualization of opacity during cooling by directing two focused lights on the capillary held against a dark background for all the devices shown in FIG. 1 except the stainless steel micro-capillary. […] This setup was used to determine the threshold (minimum) CPA concentration required to completely avoid opacity during cooling. […] Various total CPA concentrations from 12% to 30% by volume with 2% increments were studied using both the open pulled straw and the thin walled quartz micro-capillary. Since 0.2-1 M sucrose or trehalose has been used in essentially all studies for cryopreservation of mammalian oocytes by both slow freezing and vitrification, further studies were also performed using the quartz micro-capillary for solutions with 0.5 M sucrose or trehalose plus 1.5 M, 2.0 M, and 2.5 M PROH, respectively. The solutions can be loaded into the open pulled straw and quartz micro-capillaries by capillary action while it can be expelled out of the capillaries by using a micro-syringe attached with a soft PEP polymer needle tip to push from the end of the capillaries with a bigger opening.

In series [4] the test system is murine embryonic stem (ES) cells. Nature of the series: Attachment efficiency of ES cells post vitrification. Format: cell-based. To be noted: 0.5 M trehalose, 2 M PROH, alone or combined; QMC, liquid nitrogen; day 1. How it is done: On the day of experiment, the attached cells were lightly trypsinized for 3-5 minutes and collected. The cells were pelleted at 100×g for 5 minutes and resuspended in cold stem cell media supplemented with 1.5 M 1,2-propanediol (Sigma, St Louis, Mo.) and incubated on ice for 10 minutes. The cells were then spun down at 100×g for 3-5 minutes and resuspended in 1 ml first vitrification solution for 10 minutes. The cells were then spun down at 100×g for 3-5 minutes and resuspended in the second solution at 10×10^6/ml for another 10 minutes. The first vitrification solution was made of ES cell maintenance medium supplemented with 1.5 M 1,2-propanediol, while the second solution was supplemented with 2 M 1,2-propanediol and 0.5 M trehalose (Ferro Pfanstiehl Laboratories, Inc., Waukegan, Ill.). Cells were also cryopreserved using either 0.5 M trehalose or 2 M 1,2-propanediol only for comparison. […]
Cell attachment and growth was determined by counting the number of cells per field under a 10× objective. […] The attachment efficiency was calculated as the ratio of the total number of cells per field of a cryopreserved sample to that of the control non-frozen sample at day 1. To assess the proliferation of the attached cells, the total number of cells per field was further monitored for 4 days.

[5] abbreviates: both open pulled straw and quartz micro-capillary.

For the compound `CC(O)CO` (stereo not drawn) [1,2-Propanediol (PROH), 1,2-propanediol], the “K4, tentative value” in series [1] (1.8 M) is on record as ~10^4 ° C./min. Besides, the entries for the “critical cooling rate to achieve vitrification (Vcc)” value in series [1] (35% (w/w) aqueous solution), in series [1] (37.5% (w/w) aqueous solution) and in series [1] (40% (w/w) aqueous solution) were 5.0×10^3 ° C./min, 1.8×10^3 ° C./min and 8.0×10^2 ° C./min, respectively. Moreover, the “cell survival, immediate viability” value in the series with primary rat hepatocytes is recorded as ~35%. The Surviving oocytes is given as 18/40 (45.0) % in the series with mouse oocytes (liquid nitrogen, 1.5 mol/l PrOH + 0.5 mol/l trehalose in FHM20, QC); 19/40 (47.5) % in the series on mouse oocytes (liquid nitrogen, 2.0 mol/l PrOH + 0.5 mol/l trehalose in FHM20, QC); 36/40 (90.0) % in the series on mouse oocytes (slush nitrogen, 1.5 mol/l PrOH + 0.5 mol/l trehalose in FHM20, QC); 28/40 (70.0) % with mouse oocytes (slush nitrogen, 2.0 mol/l PrOH + 0.5 mol/l trehalose in FHM20, QC). Further, the K4 in series [2] (35% (w/w) aqueous solution) is recorded as 151 ° C./min; in series [2] (37.5% (w/w) aqueous solution), 54.1 ° C./min; in series [2] (40% (w/w) aqueous solution), 24.1 ° C./min. The “appearance of the loaded quartz micro-capillary after plunging into liquid nitrogen” value in series [3] (1 M (7% v) 1,2-propanediol in FHM) is “opaque; also recorded: whitish appearance”; in series [3] (2 M (14% v) 1,2-propanediol in FHM), “clear appearance”. Moreover, the “threshold concentration lower than that of ethylene glycol (EG)” value in series [3] (setting [5]) was ~5 % v. For the same compound, in series [3] (setting [5]), the “threshold concentration lower than that of the combination of EG and PROH in a 1:1 ratio” value was found to be 2.5 % v. In series [3] (micro-capillary, liquid nitrogen), the “threshold concentration for the complete absence of opacity” value is reported as ~2 M. In addition, in series [4], the “attachment efficiency (normalized to control)” value is “minimum amount of cells can attach”.

With `OCCO` [Ethylene glycol (EG), ethylene glycol], the “threshold concentration for the complete absence of opacity” value in series [3] is given as ~4 M.

`OC[C@H]1O[C@@](CO)(O[C@H]2O[C@H](CO)[C@@H](O)[C@H](O)[C@H]2O)[C@@H](O)[C@@H]1O` [sucrose]: in the series with primary rat hepatocytes, the “cell survival, immediate viability” value is recorded as “less than 10%”.

In the case of `OC[C@H]1O[C@H](O[C@H]2O[C@H](CO)[C@@H](O)[C@H](O)[C@H]2O)[C@H](O)[C@@H](O)[C@@H]1O` [trehalose], the “attachment efficiency (normalized to control)” value in series [4] is reported as “minimum amount of cells can attach”.
